According to patent US20170313674A1, “BENZYLHYDROXIDE DERIVATIVES, PREPARATION THEREOF AND THERAPEUTIC USE THEREOF” (SANOFI, priority 2014, published 2017):
Like-named read-outs stand apart in the source and are kept apart here.

How the values were obtained:
HIF-1a = assay: Western blot model: HIF1-a stabilization in Hep3b cells under hypoxia; assay type: cell-based; conditions: hypoxia 1% O2, 6 hours; for Western Blot (range of decrease of HIF1-a stabilization): class symbol
Procedure: Since it was sought to determine the efficacy of the compounds to inhibit HIF1a stabilization under hypoxia, the compounds according to the invention underwent biochemical studies in order to determine their capacity to decrease HIF stabilization in Hep3b cells under hypoxia (western blot model).
Hep3B cells are seeded at a rate of 300000 cells per well in 6-wells culture plate in 2 ml of MEM supplemented with glutamin (2 mM) and 10% FCS (foetal calf serum) and incubated at 37° C. in the presence of 5% CO2. The next day, the cells are placed in contact with the compound and an incubation under hypoxia at 1% O2 is carried out at 37° C. in 95% humidity and 5% CO2 in a sealed anaerobic workstation (Hypoxystation H35-Don Whitley—AES Chemunex) during 6 hours.
Cells were washed (PBS) and lysed in SDS sample buffer. Proteins (25 μg) were separated on 4-12% Bis-Tris gels and transferred onto polyvinylidene difluoride membranes (Millipore). Membranes were blotted with a mouse monoclonal antibody to HIF-1a (BD transduction) and a mouse monoclonal anti-βactin (Sigma). Immunoreactive bands were detected with a horse radish peroxydase (HRP) anti-mouse antibody (Sigma) by enhanced chemiluminescence (Promega).
The inhibitory activity of the compounds for their capacity to decrease HIF1-a stabilization in Hep3b under hypoxia is expressed as range of percentage relative to control with: […]

[1] = tested on: mitochondrial ATP production on non-small cell lung carcinoma cell lines NCI-H460; assay: Mitochondrial ATP analysis (Cell Titer Glo) in NCI-H460 cells; assay type: cell-based; conditions: 1-hour incubation, with sodium iodoacetate (100 μM), concentration inhibiting 50% of mitochondrial ATP production, read-out: IC50 (mito ATP)
Procedure: In order to evaluate the inhibitory activity of the all compounds, an in vitro assay was developed which read out is directly linked to mitochondrial complex 1 inhibition. Since mitochondrial complex 1 contributes to the formation of membrane potential coupled to the mitochondrial ATP synthesis, complex 1 inhibition directly leads in cells to the inhibition of mitochondrial ATP production. Cellular ATP contents were measured in presence of either glycolysis inhibitor (sodium iodocetate) and/or mitochondrial inhibitors (F0F1-ATPase inhibitor: oligomycin or mitochondrial uncoupler: FCCP) to determine the ATP production part relying either on glycolytic or on mitochondrial metabolism.
Mitochondrial ATP Analysis
The compounds of the invention were evaluated for their ability to inhibit mitochondrial
ATP was measured using the Promega Cell Titer Glo kit and protocol. In summary, 1,000 cells were plated in 40 μL in a 384 well plate. 24 hours later, medium was replaced by 20 μl culture medium in presence of compounds: cells were treated in replicates of five with control (PBS), oligomycin A (10 μg/ml), FCCP (30 μM), or the compounds of the invention in dose effect both alone or in combination with sodium iodoacetate (100 μM). Following a 1-hour incubation, 20 μL of CellTtiter-glo™ reaction mix were added to each well for a final volume of 40 μL. Plates were then analyzed for luminescence with a Perkin Elmer EnVision. By comparing the different conditions, global ATP and percentages of both glycolytic and mitochondrial ATP were determined.
The mitochondrial ATP production was calculated as the remaining ATP under iodoacetate treatment minus basal ATP (ATP content under iodoacetate and oligomycin treatment). Inhibitory activity of the compounds on mitochondrial ATP in NCI-H460 cells is expressed as the concentration needed to inhibit 50% of mitochondrial ATP production (IC50, M).

Row | Structure (SMILES) | Western Blot (decrease of HIF1-a stabilization, percentage relative to control) (HIF-1a) [%] | Western Blot (range of decrease of HIF1-a stabilization) (HIF-1a) | IC50 [1] [nM] | IC50 ([1]; Homo sapiens, NCI-H460, 1 h) [nM]
1 | COc1ccc(C(O)C(C)(C)Oc2ccc(-c3coc(-c4ccc(OC(C)(C)C(O)c5ccc(OC)c(OC)c5)cc4)n3)cc2)cc1OC (single isomer, unassigned) [Compound I-19, 1-(3,4-dimethoxyphenyl)-2-[4-[2-[4-[2-(3,4-dimethoxyphenyl)-2-hydroxy-1,1-dimethyl-ethoxy]phenyl]oxazol-4-yl]phenoxy]-2-methyl-propan-1-ol] | 56 | ** (** represents a decrease of HIF-a stabilization between 50 to 70%) | 245 | 
2 | COc1ccc(C(O)C(C)(C)Oc2ccc(-c3cn(C)c(-c4ccc(OC(C)(C)C(O)c5ccc(OC)c(OC)c5)cc4)n3)cc2)cc1OC (centres unmarked) [Compound I-57, 1-(3,4-dimethoxyphenyl)-2-[4-[2-[4-[2-(3,4-dimethoxyphenyl)-2-hydroxy-1,1-dimethyl-ethoxy]phenyl]-1-methyl-imidazol-4-yl]phenoxy]-2-methyl-propan-1-ol] | 18 | − (− represents a decrease of HIF1-a stabilization is less than 30%) |  | 51.9
3 | COc1ccc(C(O)C(C)Oc2ccc(-c3csc(-c4ccc(OC(C)C(O)c5ccc(OC)c(OC)c5)cc4)n3)cc2)cc1OC (single isomer, unassigned) [Compound I-30, 1-(3,4-dimethoxyphenyl)-2-[4-[2-[4-[2-(3,4-dimethoxyphenyl)-2-hydroxy-1-methyl-ethoxy]phenyl]thiazol-4-yl]phenoxy]propan-1-ol] | 56 | ** (** represents a decrease of HIF-a stabilization between 50 to 70%) | 167 | 
4 | COc1ccc(C(O)COc2ccc(-c3csc(-c4ccc(OC(C)(C)C(O)c5ccc(OC)c(OC)c5)cc4)n3)cc2)cc1OC (single isomer, unassigned) [Compound I-65, 1-(3,4-dimethoxyphenyl)-2-[4-[4-[4-[2-(3,4-dimethoxyphenyl)-2-hydroxy-ethoxy]phenyl]thiazol-2-yl]phenoxy]-2-methyl-propan-1-ol] | 41 | * (* represents a decrease of HIF-a stabilization between 30 to 50%) |  | 23.8
5 | COc1ccc(C(O)COc2ccc(-c3csc(-c4ccc(OC(C)(C)C(O)c5ccc(OC)c(OC)c5)cc4)n3)cc2)cc1OC (single isomer, unassigned) [Compound I-66, 1-(3,4-dimethoxyphenyl)-2-[4-[4-[4-[2-(3,4-dimethoxyphenyl)-2-hydroxy-ethoxy]phenyl]thiazol-2-yl]phenoxy]-2-methyl-propan-1-ol] | 54 | ** (** represents a decrease of HIF-a stabilization between 50 to 70%) | 26.5 | 
6 | COc1ccc(C(O)C(C)(C)Oc2ccc(-c3nc(-c4ccc(OC(C)(C)C(O)c5ccc(OC)c(OC)c5)cc4)c(C)s3)cc2)cc1OC (centres unmarked) [Compound I-6, 1-(3,4-dimethoxyphenyl)-2-[4-[2-[4-[2-(3,4-dimethoxyphenyl)-2-hydroxy-1,1-dimethyl-ethoxy]phenyl]-5-methyl-thiazol-4-yl]phenoxy]-2-methyl-propan-1-ol] | 43 | * (* represents a decrease of HIF-a stabilization between 30 to 50%) |  | 21.3
7 | COc1ccc(C(O)COc2ccc(-c3noc(-c4ccc(OCC(O)c5ccc(OC)c(OC)c5)cc4)n3)cc2)cc1OC (centres unmarked) [Compound I-36, 1-(3,4-dimethoxyphenyl)-2-[4-[5-[4-[2-(3,4-dimethoxyphenyl)-2-hydroxy-ethoxy]phenyl]-1,2,4-oxadiazol-3-yl]phenoxy]ethanol] | 62 | ** (** represents a decrease of HIF-a stabilization between 50 to 70%) |  | 676
8 | COc1ccc(C(O)COc2ccc(-c3csc(-c4ccc(OCC(O)c5ccc(OC)c(OC)c5)cc4)c3)cc2)cc1OC (centres unmarked) [Compound I-35, 1-(3,4-dimethoxyphenyl)-2-[4-[5-[4-[2-(3,4-dimethoxyphenyl)-2-hydroxy-ethoxy]phenyl]-3-thienyl]phenoxy]ethanol] | 68 | ** (** represents a decrease of HIF-a stabilization between 50 to 70%) |  | 303
9 | COc1ccc(C(O)C(C)(C)Oc2ccc(-c3nsc(-c4ccc(OC(C)(C)C(O)c5ccc(OC)c(OC)c5)cc4)n3)cc2)cc1OC (single isomer, unassigned) [Compound I-44, 1-(3,4-dimethoxyphenyl)-2-[4-[5-[4-[2-(3,4-dimethoxyphenyl)-2-hydroxy-1,1-dimethyl-ethoxy]phenyl]-1,2,4-thiadiazol-3-yl]phenoxy]-2-methyl-propan-1-ol] | 45 | * (* represents a decrease of HIF-a stabilization between 30 to 50%) | 54.4 | 
10 | COc1ccc(C(O)COc2ccc(-c3coc(-c4ccc(OCC(O)c5ccc(OC)c(OC)c5)cc4)n3)cc2)cc1OC (single isomer, unassigned) [Compound I-14, 1-(3,4-dimethoxyphenyl)-2-[4-[2-[4-[2-(3,4-dimethoxyphenyl)-2-hydroxy-ethoxy]phenyl]oxazol-4-yl]phenoxy]ethanol] | 59 | ** (** represents a decrease of HIF-a stabilization between 50 to 70%) | 679 | 
11 | COc1ccc(C(O)C(C)(C)Oc2ccc(-c3nc(-c4ccc(OC(C)(C)C(O)c5ccc(OC)c(OC)c5)cc4)c(C)o3)cc2)cc1OC (centres unmarked) [Compound I-2, 1-(3,4-dimethoxyphenyl)-2-[4-[2-[4-[2-(3,4-dimethoxyphenyl)-2-hydroxy-1,1-dimethyl-ethoxy]phenyl]-5-methyl-oxazol-4-yl]phenoxy]-2-methyl-propan-1-ol] | 54 | ** (** represents a decrease of HIF-a stabilization between 50 to 70%) |  | 23
12 | COc1ccc(C(O)COc2ccc(-c3nc(-c4ccc(OC(C)(C)C(O)c5ccc(OC)c(OC)c5)cc4)cs3)cc2)cc1OC (single isomer, unassigned) [Compound I-67, 1-(3,4-dimethoxyphenyl)-2-[4-[2-[4-[2-(3,4-dimethoxyphenyl)-2-hydroxy-ethoxy]phenyl]thiazol-4-yl]phenoxy]-2-methyl-propan-1-ol] |  |  | 156 | 
13 | COc1ccc(C(O)COc2ccc(-c3csc(-c4ccc(OCC(O)c5ccc(OC)c(OC)c5)cc4)n3)cc2)cc1OC (single isomer, unassigned) [Compound I-23, 1-(3,4-dimethoxyphenyl)-2-[4-[2-[4-[2-(3,4-dimethoxyphenyl)-2-hydroxy-ethoxy]phenyl]thiazol-4-yl]phenoxy]ethanol] |  |  | 197 | 
